Consider 33 molecules from patent publication US10654837B2, “Sulphamoylaryl derivatives and use thereof as medicaments for the treatment of liver fibrosis” (Janssen Pharmaceutica NV, priority 2017, dated 2020).

The target in this experiment is T1, 5HTR2B (Homo sapiens, UniProt P41595).
T1 construct: host or cells: human Maverick/293 cells
T1 sequence (P41595 whole entry): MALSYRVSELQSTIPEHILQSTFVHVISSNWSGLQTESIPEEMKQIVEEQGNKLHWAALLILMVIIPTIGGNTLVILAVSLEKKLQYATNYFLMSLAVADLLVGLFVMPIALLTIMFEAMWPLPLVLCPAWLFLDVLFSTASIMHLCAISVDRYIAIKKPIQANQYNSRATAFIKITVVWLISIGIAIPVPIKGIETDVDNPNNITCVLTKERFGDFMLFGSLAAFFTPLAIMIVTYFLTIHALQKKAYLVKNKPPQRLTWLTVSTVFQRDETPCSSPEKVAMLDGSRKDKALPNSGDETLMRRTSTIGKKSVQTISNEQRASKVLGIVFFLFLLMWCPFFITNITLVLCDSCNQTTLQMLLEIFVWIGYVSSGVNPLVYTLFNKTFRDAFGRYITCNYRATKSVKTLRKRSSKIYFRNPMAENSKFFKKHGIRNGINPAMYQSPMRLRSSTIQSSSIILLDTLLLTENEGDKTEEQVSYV
As to the kind of experiment: 5HTR2B antagonist activity, calcium mobilization assay in human Maverick/293 cells (serotonin as agonist). The experiment is classed as cell-based. The note with it: intracellular calcium, emission 525 nm, read-out: Ca assay IC50. How it is done: The 5HTR2B antagonist activity was measured using human Maverick/293 cells in a calcium mobilization assay. The measurement starting with plating human Maverick/293 cells (log phase) onto 96-well black and incubate at 37° C. overnight, Followed by starving cells for 2 h by changing complete medium to DMEM without FBS, removing the medium from the 96-well plate. Loading staining calcium buffer into each well and incubated the plate at 37° C. for 50 min. After removal of staining calcium buffer, diluted antagonist were added into the well, incubate 15 to 30 minutes. Dispense serotonin as the 5HTR2B agonists into each well. Intracellular calcium concentration is recorded for 80 seconds by monitoring an emission at a wavelength of 525 nm with an excitation wavelength of 485 nm. Inhibition efficiency of the cell line was determined following the equation: % Inhibition=100%−(D−B)/(S−B)*100%. (S: The peak value in the presence of agonist serotonin; D: The peak value in the presence of different dilution compound or serotonin; B: The peak value in the presence of calcium HBSS buffer only). […] A dose response curve was fitted using nonlinear regression model with a sigmoidal dose response. The IC50 was automatically produced by GraphPad Prism 5.0.
For `COc1ccc(NS(=O)(=O)[C@@H]2CCOC2)cc1C(=O)Nc1ccc(F)c(C)c1` (single isomer, unassigned) [Compound 202b, (R*)N-4-fluoro-3-methylphenyl)-2-methoxy-5-(tetrahydrofuran-3-sulfonamido)benzamide], the IC50 worked out at 2.8 nM.
For the molecule `COc1ccc(N(C)S(=O)(=O)C2CCOC2)cc1C(=O)Nc1ccc(F)c(C)c1` (single isomer, unassigned) [Compound 204a, (R*)—N-(4-Fluoro-3-methylphenyl)-2-methoxy-5-(N-methyltetrahydrofuran-3-sulfonamido)benzamide], the IC50 worked out at 50 nM.
Next, `COc1ccc(N(C)S(=O)(=O)C2CCOC2)cc1C(=O)Nc1ccc(F)c(C)c1` (single isomer, unassigned) [Compound 204b, (S*)—N-(4-Fluoro-3-methylphenyl)-2-methoxy-5-(N-methyltetrahydrofuran-3-sulfonamido)benzamide]: 56 nM; `COc1ccc(S(=O)(=O)NC2CC[C@H](O)C2)cc1C(=O)Nc1ccc(F)c(C)c1` (stereo in doubt) [Compound 15a, N-(4-Fluoro-3-methylphenyl)-5-(N-((cis)-3-hydroxycyclopentyl)sulfamoyl)-2-methoxybenzamide]: 2 nM.
The figure for `COc1ccc(S(=O)(=O)NC2CCCC[C@@H]2O)cc1C(=O)Nc1ccc(F)c(C)n1` (stereo in doubt) [Compound 28a, N-(5-Fluoro-6-methylpyridin-2-yl)-5-(N-((trans)-2-hydroxycyclohexyl)sulfamoyl)-2-methoxybenzamide] is 19 nM; for `COc1ccc(S(=O)(=O)NC2CCCC[C@H]2O)cc1C(=O)Nc1ccc(F)c(C)n1` (stereo in doubt) [Compound 28b, N-(5-Fluoro-6-methylpyridin-2-yl)-5-(N-((trans)-2-hydroxycyclohexyl)sulfamoyl)-2-methoxybenzamide] it is 119 nM; for `COc1ccc(S(=O)(=O)NC2CC[C@H](O)C2)cc1C(=O)Nc1ccc(F)c(C(F)F)c1` (stereo in doubt) [Compound 33b, N-(3-(Difluoromethyl)-4-fluorophenyl)-5-(N-((cis)-3-hydroxycyclopentyl)sulfamoyl)-2-methoxybenzamide] it is 0.4 nM.
As to `COc1ccc(S(=O)(=O)NC2COC[C@@H]2O)cc1C(=O)Nc1ccccc1Cl` (stereo in doubt) [Compound 56a, N-(2-Chlorophenyl)-5-(N-((cis)-4-hydroxytetrahydrofuran-3-yl)sulfamoyl)-2-methoxybenzamide], the concentration for half-maximal inhibition (IC50) was determined as 0.1 nM.
As to `COc1ccc(S(=O)(=O)NC2COC[C@H]2O)cc1C(=O)Nc1ccccc1Cl` (stereo in doubt) [Compound 56b, N-(2-Chlorophenyl)-5-(N-((cis)-4-hydroxytetrahydrofuran-3-yl)sulfamoyl)-2-methoxybenzamide], the IC50 stood at 0.2 nM.
The figure for `COc1ccc(S(=O)(=O)NC2CC(F)(F)C2)cc1C(=O)Nc1ccc(F)c(C)c1` [Compound 1, 5-(N-(3,3-Difluorocyclobutyl)sulfamoyl)-N-(4-fluoro-3-methylphenyl)-2-methoxybenzamide] is 2.3 nM; for `COc1ccc(S(=O)(=O)N[C@H]2CCOC2)cc1C(=O)Nc1ccc(F)c(C)n1` [Compound 2] it is 0.6 nM.
For `COc1ccc(S(=O)(=O)N[C@H]2CCOC2)cc1C(=O)Nc1cccc(F)c1Cl` [Compound 3, (S)—N-(2-Chloro-3-fluorophenyl)-2-methoxy-5-(N-(tetrahydrofuran-3-yl)sulfamoyl) benzamide], the IC50 amounted to 1.7 nM.
In the case of `COc1ccc(S(=O)(=O)N[C@H]2CCOC2)cc1C(=O)Nc1ccc(F)c(C)c1` [Compound 4, (S)—N-(4-Fluoro-3-methylphenyl)-2-methoxy-5-(N-(tetrahydrofuran-3-yl)sulfamoyl)benzamide], the half-inhibitory concentration (IC50) was 0.7 nM.
The figure for `COc1ccc(S(=O)(=O)NC2COC2)cc1C(=O)Nc1ccc(F)c(C)c1` [Compound 5, N-(4-Fluoro-3-methylphenyl)-2-methoxy-5-(N-(oxetan-3-yl)sulfamoyl) benzamide] is 4.2 nM; for `COc1ccc(S(=O)(=O)N[C@H]2C[C@H](O)C2)cc1C(=O)Nc1ccc(F)c(C)c1` [Compound 6a, N-(4-Fluoro-3-methylphenyl)-5-(N-((trans)-3-hydroxycyclobutyl)sulfamoyl)-2-methoxybenzamide] it is 18 nM; for `COc1ccc(S(=O)(=O)N[C@H]2C[C@@H](O)C2)cc1C(=O)Nc1ccc(F)c(C)c1` [Compound 6b, N-(4-Fluoro-3-methylphenyl)-5-(N-((cis)-3-hydroxycyclobutyl)sulfamoyl)-2-methoxybenzamide] it is 1.9 nM.
The figure for `COc1ccc(S(=O)(=O)NC2CC(C)C2)cc1C(=O)Nc1ccc(F)c(C)c1` (stereo not drawn) [Compound 7, N-(4-Fluoro-3-methylphenyl)-2-methoxy-5-(N-(3-methylcyclobutyl)sulfamoyl) benzamide] is 5.4 nM; for `COc1ccc(S(=O)(=O)N[C@H]2C[C@@H](C)C2)cc1C(=O)Nc1ccc(F)c(C)c1` [Compound 7a, N-(4-Fluoro-3-methylphenyl)-2-methoxy-5-(N-((cis)-3-methylcyclobutyl)sulfamoyl)benzamide] it is 3.8 nM.
The figure for `COc1ccc(S(=O)(=O)N[C@H]2C[C@H](C)C2)cc1C(=O)Nc1ccc(F)c(C)c1` [Compound 7b, N-(4-Fluoro-3-methylphenyl)-2-methoxy-5-(N-((trans)-3-methylcyclobutyl)sulfamoyl)benzamide] is 6.9 nM; for `COc1ccc(S(=O)(=O)NC(C)C)cc1C(=O)Nc1ccc(F)c(C)c1` [Compound 8, N-(4-Fluoro-3-methylphenyl)-5-(N-isopropylsulfamoyl)-2-methoxybenzamide] it is 2.5 nM; for `COc1ccc(S(=O)(=O)NC2(C)COC2)cc1C(=O)Nc1ccc(F)c(C)c1` [Compound 9, N-(4-Fluoro-3-methylphenyl)-2-methoxy-5-(N-(3-methyloxetan-3-yl)sulfamoyl) benzamide] it is 2.2 nM.
As for `COc1ccc(S(=O)(=O)NC(C)CO)cc1C(=O)Nc1ccc(F)c(C)c1` (stereo not drawn) [Compound 10, N-(4-Fluoro-3-methylphenyl)-5-(N-(1-hydroxypropan-2-yl)sulfamoyl)-2-methoxybenzamide], the IC50 is 4.5 nM.
The figure for `COc1ccc(S(=O)(=O)N[C@@H](C)CO)cc1C(=O)Nc1ccc(F)c(C)c1` [Compound 10a, (S)—N-(4-Fluoro-3-methylphenyl)-5-(N-(1-hydroxypropan-2-yl)sulfamoyl)-2-methoxybenzamide] is 4.5 nM.
Next, `COc1ccc(S(=O)(=O)N[C@H](C)CO)cc1C(=O)Nc1ccc(F)c(C)c1` [Compound 10b, (R)—N-(4-Fluoro-3-methylphenyl)-5-(N-(1-hydroxypropan-2-yl)sulfamoyl)-2-methoxybenzamide]: 12 nM; `COc1ccc(S(=O)(=O)NC(C)C(N)=O)cc1C(=O)Nc1ccc(F)c(C)c1` (stereo not drawn) [Compound 12, 5-(N-(1-Amino-1-oxopropan-2-yl)sulfamoyl)-N-(4-fluoro-3-methylphenyl)-2-methoxybenzamide]: 9.3 nM; `COc1ccc(S(=O)(=O)N[C@@H](C)C(N)=O)cc1C(=O)Nc1ccc(F)c(C)c1` [Compound 12a, (S)-5-(N-(1-Amino-1-oxopropan-2-yl)sulfamoyl)-N-(4-fluoro-3-methylphenyl)-2-methoxybenzamide]: 1.8 nM.
As to `COc1ccc(S(=O)(=O)N[C@H](C)C(N)=O)cc1C(=O)Nc1ccc(F)c(C)c1` [Compound 12b, (R)-5-(N-(1-Amino-1-oxopropan-2-yl)sulfamoyl)-N-(4-fluoro-3-methylphenyl)-2-methoxybenzamide], the IC50 was found to be 122 nM.
As for `COc1ccc(S(=O)(=O)NC2(CO)COC2)cc1C(=O)Nc1ccc(F)c(C)c1` [Compound 13, N-(4-Fluoro-3-methylphenyl)-5-(N-(3-(hydroxymethyl)oxetan-3-yl)sulfamoyl)-2-methoxybenzamide], the IC50 was 66.3 nM.
Next, `COc1ccc(S(=O)(=O)NC2CC(C)(C)C2)cc1C(=O)Nc1ccc(F)c(C)c1` [Compound 14, 5-(N-(3,3-Dimethylcyclobutyl)sulfamoyl)-N-(4-fluoro-3-methylphenyl)-2-methoxybenzamide]: 14.6 nM.
`COc1ccc(S(=O)(=O)NC2CCOCC2)cc1C(=O)Nc1ccc(F)c(C)n1` [Compound 17, N-(5-Fluoro-6-methylpyridin-2-yl)-2-methoxy-5-(N-(tetrahydro-2H-pyran-4-yl)sulfamoyl)benzamide]: the half-inhibitory concentration (IC50) turned out to be 7.2 nM.
With `COc1ccc(S(=O)(=O)N[C@H]2CC[C@H](O)CC2)cc1C(=O)Nc1ccc(F)c(C)n1` [Compound 18, (trans)-N-(5-Fluoro-6-methylpyridin-2-yl)-5-(N-(−4-hydroxycyclohexyl)sulfamoyl)-2-methoxybenzamid], the IC50 worked out at 222 nM.
Next, `COc1ccc(S(=O)(=O)NC2CCN(C)CC2)cc1C(=O)Nc1ccc(F)c(C)n1` [Compound 19, N-(5-Fluoro-6-methylpyridin-2-yl)-2-methoxy-5-(N-(1-methylpiperidin-4-yl)sulfamoyl)benzamide]: 173 nM; `COc1ccc(S(=O)(=O)NC2CCCCC2)cc1C(=O)Nc1ccc(F)c(C)n1` [Compound 20, 5-(N-Cyclohexylsulfamoyl)-N-(5-fluoro-6-methylpyridin-2-yl)-2-methoxy benzamide]: 4.4 nM.
